Measurements taken from US10576102B2, “KOC1-derived peptide and vaccine including same” (ONCOTHERAPY SCIENCE, INC., priority 2014, dated 2020).
“Also recorded” adds a separate entry of the source.

Experiments:
Assay type in all cases: cell-based, human
[1] = tested on: peptide-pulsed C1R-A33; test: In vitro CTL induction, IFN-gamma ELISPOT assay (HLA-A*3303); conditions: CTLs induced with peptide-pulsed DCs from HLA-A*3303-positive volunteers, day 21, vs peptide-pulsed C1R-A33, compared with unpulsed control
Protocol: (§1) C1R (C1R-A33) that stably expresses HLA-A*3303 was used as a stimulator cell. A cDNA encoding the open-reading frame of HLA-A*3303 was amplified by PCR and cloned into an expression vector. C1R cells were transfected with the expression vector, and then selected using G418 (Invitrogen) for two weeks. The G418-selected cells were seeded into wells containing G418-added culture medium in a 96-well plate, and further cultured for 30 days. The exogenous HLA-A*3303 expression in C1R cells was verified by flow cytometric analysis.
(§2) Monocyte-derived dendritic cells (DCs) were used as the antigen-presenting cell to induce a cytotoxic T lymphocyte (CTL) response against peptides presented on human leukocyte antigens (HLAs). As described in the other sections, DCs were generated in vitro (Nakahara S et al., Cancer Res 2003, 63(14): 4112-8). Specifically, peripheral-blood mononuclear cells isolated from healthy volunteers (HLA-A*3303-positive) with the Ficoll-Paque plus solution (Pharmacia) were separated by attaching to plastic tissue culture dishes (Becton Dickinson) and concentrated as a monocyte fraction. The monocyte-concentrated population was cultured in the presence of 1000 IU/ml granulocyte macrophage colony-stimulating factor (R&D System) and 1000 IU/ml interleukin(IL)-4 (R&D System) in an AIM-V medium (Invitrogen) containing 2% heat-inactivated autologous serum (AS). After seven days of culturing, the cytokine-induced DCs were pulsed with 20 micro-g/ml each of the synthesized peptides in an AIM-V medium at 37 degrees C. for three hours in the presence of 3 micro-g/ml beta 2-microglobulin. The generated cells appeared to express on their cell surface DC-associated molecules such as CD80, CD83, CD86 and HLA class II (data not shown). Next, these peptide-pulsed DCs were inactivated by X-ray irradiation (20 Gy), and mixed in a 1:20 ratio with autologous CD8^+ T cells obtained by positive selection using the CD8 Positive Isolation Kit (Dynal). These culture products were seeded in a 48-well plate (Corning). Each well was made to contain 1.5×10^4 peptide-pulsed DCs, 3×10^5 CD8^+ T cells and 10 ng/ml IL-7 (R&D System) in 0.5 ml of the AIM-V/2% AS medium. Three days later, these culture products were added with a final concentration of 20 IU/ml IL-2 (CHIRON). On day 7 and day 14, T cells were further stimulated with peptide-pulsed autologous DCs. The DCs were prepared every time by the same method as above. On day 21, after the third peptide stimulation, CTLs were examined against the peptide-pulsed C1R-A33 cell by a human interferon (IFN)-gamma enzyme-linked immunospot (ELISPOT) assay (Tanaka H et al., Br J Cancer 2001, 84(1): 94-9; Umano Y et. al., Br J Cancer 2001, 84(8): 1052-7; Uchida N et al., Clin Cancer Res 2004, 10(24): 8577-86; Suda T et al., Cancer Sci 2006, 97(5): 411-9; Watanabe T et al., Cancer Sci 2005, 96(8): 498-506).
(§3) Specifically, peptide-pulsed C1R-A33 (1×10^4 cells/well) was prepared as the stimulator cell. The induced CTLs, i.e., CTL lines and CTL clones, were used as the responder cell. The IFN-gamma ELISPOT assay and IFN-gamma ELISA were performed according to the manufacturer's manual.

[2] = tested on: peptide-pulsed C1R-A01; test: In vitro CTL induction, IFN-gamma ELISPOT assay (HLA-A*0101); conditions: CTLs induced with peptide-pulsed DCs from HLA-A*0101-positive volunteers, day 21, vs peptide-pulsed C1R-A01, compared with unpulsed control
Protocol: as §1, with “(C1R-A01)” for “(C1R-A33)”, “HLA-A*0101” for “HLA-A*3303”
as §2, with “(HLA-A*0101-positive)” for “(HLA-A*3303-positive)”, “2-microglobulin.” for “2-microglobulin. The generated cells appeared to express on their cell surface DC-associated molecules such as CD80, CD83, CD86 and HLA class II (data not shown).”, “CTL activities” for “CTLs”, “C1R-A01 cells” for “C1R-A33 cell by a human interferon (IFN)-gamma enzyme-linked immunospot (ELISPOT) assay”, “et” for “et.”
Specifically, peptide-pulsed C1R-A01 (1×10^4 cells/well) was prepared as the stimulator cell. The induced CTLs, i.e., CTL lines and CTL clones, were used as the responder cell. The IFN-gamma ELISPOT assay and IFN-gamma ELISA were performed according to the manufacturer's manual.

[3] = tested on: peptide-pulsed C1R-A33; test: IFN-gamma ELISA of CTL lines and CTL clones (HLA-A*3303); conditions: for IFN-gamma production of CTL clones, ELISA: CTL clones by limiting dilution, peptide-pulsed C1R-A33; for IFN-gamma production of CTL lines, ELISA: target cells pulsed with the peptide vs not pulsed, C1R-A33
Protocol: CTLs were propagated in culture using methods similar to those disclosed by Riddell et al. (Walter E A et al., N Engl J Med 1995, 333(16): 1038-44; Riddell S R et al., Nat Med 1996, 2(2): 216-23). The CTLs were co-cultured in a total of 25 ml AIM-V medium containing 5% AS (AIM-V/5% AS) and 40 ng/ml anti-CD3 antibody with two types of Mitomycin C-treated human B lymphoblastoid cell lines at 5×10^6 cells/flask. One day after beginning of the culturing, 120 IU/ml IL-2 was added to the culture. On days 5, 8 and 11, a fresh AIM-V/5% AS medium containing 30 IU/ml IL-2 was added to the culture (Tanaka H et al., Br J Cancer 2001, 84(1): 94-9; Umano Y et al., Br J Cancer 2001, 84(8): 1052-7; Uchida N et al., Clin Cancer Res 2004, 10(24): 8577-86; Suda T et al., Cancer Sci 2006, 97(5): 411-9; Watanabe T et al., Cancer Sci 2005, 96(8): 498-506).
Dilution of CTLs was carried out to make 0.3, 1 and 3 cells/well in 96 round-bottomed microtiter plates (Nalge Nunc International). The CTLs were co-cultured with two types of Mitomycin C-treated human B lymphoblastoid cell lines at 1×10^4 cells/well in a total of 150 micro-1/well AIM-V/5% AS medium with 30 ng/ml anti-CD3 antibody and 125 IU/ml IL-2. Ten days later, IL-2 was added to the medium at 50 micro-1/well to reach a final concentration of 125 IU/ml. On day 14, the CTL activity was tested, and the CTL clones were propagated using the same method as described above (Uchida N et al., Clin Cancer Res 2004, 10(24): 8577-86; Suda T et al., Cancer Sci 2006, 97(5): 411-9; Watanabe T et al., Cancer Sci 2005, 96(8): 498-506).
as §3

Row | Sequence | peptide-specific CTL activity (IFN-gamma production), ELISPOT [1] | peptide-specific CTL activity (IFN-gamma production), ELISPOT [2] | further results
1 | ELTLYNPER (a peptide derived from KOC1) [SEQ ID NO: 63] | potent IFN-gamma production |  | 
2 | ETETVHLFI (a peptide derived from KOC1) [SEQ ID NO: 90] |  | potent IFN-gamma production | 
3 | FYACQVAQR (a peptide derived from KOC1) [SEQ ID NO: 61] | potent IFN-gamma production |  | IFN-gamma production of CTL clones, ELISA ([3]; listed as KOC1-A33-9-543): Potent IFN-gamma production; IFN-gamma production of CTL lines, ELISA [3]: potent IFN-gamma production
4 | FYACQVAQRK (a peptide derived from KOC1) [SEQ ID NO: 79] | potent IFN-gamma production |  | 
5 | ISPLQELTLY (a peptide derived from KOC1) [SEQ ID NO: 46] |  | potent IFN-gamma production | 
6 | LAHNNFVGR (a peptide derived from KOC1) [SEQ ID NO: 62] | potent IFN-gamma production |  | IFN-gamma production of CTL clones, ELISA ([3]; listed as KOC1-A33-9-282): Potent IFN-gamma production; IFN-gamma production of CTL lines, ELISA [3]: potent IFN-gamma production
7 | LVKTGYAFV (a peptide derived from KOC1) [SEQ ID NO: 74] | potent IFN-gamma production |  | 
8 | NNFVGRLIGK (a peptide derived from KOC1) [SEQ ID NO: 85] | potent IFN-gamma production |  | 
9 | QGQHIKQLSR (a peptide derived from KOC1) [SEQ ID NO: 80] | potent IFN-gamma production |  | 
10 | QSETETVHL (a peptide derived from KOC1) [SEQ ID NO: 92] |  | potent IFN-gamma production | 
11 | QSETETVHLF (a peptide derived from KOC1) [SEQ ID NO: 95] |  | potent IFN-gamma production | 
12 | SSAEVVVPR (a peptide derived from KOC1) [SEQ ID NO: 4] |  |  | peptide-specific CTL activity (IFN-gamma production), ELISPOT ([1]; listed as KOC1-A33-9-517): no specific IFN-gamma production; also recorded: specific IFN-gamma production was not observed
13 | VVKITGHFY (a peptide derived from KOC1) [SEQ ID NO: 13] |  |  | peptide-specific CTL activity (IFN-gamma production), ELISPOT ([2]; listed as KOC1-A01-9-536): no specific IFN-gamma production; also recorded: specific IFN-gamma production was not observed
14 | VVVKITGHFY (a peptide derived from KOC1) [SEQ ID NO: 41] |  | potent IFN-gamma production | 
